System: ischemic and reperfused hearts
Assay: Ischemia and reperfusion of the isolated rat heart perfused by the Langendorff method: ventricular total sodium content and recovery in contractile tension
Settings: for Sodium Content: 45 min ischemia, 30 min reperfusion, atomic absorption; for Recovery in Contractile Tension: at 30 min after reperfusion, relative to tension at beginning of experiment; for increase of ventricular sodium content induced by ischemia and reperfusion (result in words): added in the reperfusion solution
Method: The heart of the rat was excised and perfused with Krebs buffer solution (in mM: NaCl 119, KCl 4.6, MgSO4.7H2O 1.2, CaCl2·2H2O 1.3, NaHCO3 25, KH2PO4 1.2, glucose 11; pH 7.4, 37° C.) according to the Langendorff method. A thread was attached to the apex of the heart, and then the end was connected to a tension transducer to determine contractile tension. The preparation was stabilized, and then myocardial ischemia was induced by reducing a perfusion pressure (for 45 minutes). After reperfusion for 30 min, the heart was liquefied in nitric acid, and ventricular total sodium content was determined by atomic absorption analysis. Contractile tension was measured during the experiment, and a recovery rate in the contractile tension at 30 min after the reperfusion, relative to the contractile tension at the beginning of the experiment, was used as an index of cardiac contractility.

**Q.** For `N=C(N)NC(=O)c1nc(Cl)c(N)nc1N` [Amiloride, reference compound], which “Sodium Content” value (10^−3 M) is on record?
**A.** The value was 64.8 ± 3.7 µmol/g.

**Q.** What about the “Recovery in Contractile Tension” value (10^−3 M) of the same compound?
**A.** Its value is 59.0 ± 4.7 %.

**Q.** What about the “Sodium Content” value (10^−4 M) of the same compound?
**A.** Its value is 71.8 ± 3.3 µmol/g.

**Q.** And the “Recovery in Contractile Tension” value (10^−4 M)?
**A.** Its value is 45.4 ± 3.8%.

**Q.** What about the “Sodium Content” value (10^−5 M) of the same compound?
**A.** The value was 77.9 ± 3.9 µmol/g.

**Q.** And the “Recovery in Contractile Tension” value (10^−5 M)?
**A.** Its value is 33.3 ± 7.2%.

**Q.** What about the “increase of ventricular sodium content induced by ischemia and reperfusion (result in words)” value of the same compound?
**A.** Its value is “no effect”.

**Q.** For `Cc1ccc(N2CCNCC2)c(S(=O)(=O)O)c1.O` [MCC-135, 5-methyl-2-(1-piperazinyl)benzenesulfonic acid monohydrate], which “Sodium Content” value (10^−6 M in reperfusion solution) is on record?
**A.** The value was 59.9 ± 2.3 µmol/g.

**Q.** And the “Recovery in Contractile Tension” value (10^−6 M)?
**A.** Its value is 79.4 ± 4.7 %.

**Q.** What about the “Sodium Content” value (10^−7 M in reperfusion solution) of the same compound?
**A.** The value was 62.2 ± 0.6 µmol/g.

**Q.** What about the “Recovery in Contractile Tension” value (10^−7 M) of the same compound?
**A.** Its value is 68.4 ± 3.2 %.

**Q.** What about the “Sodium Content” value (10^−8 M in reperfusion solution) of the same compound?
**A.** The value was 68.7 ± 3.7 µmol/g.

**Q.** What about the “Recovery in Contractile Tension” value (10^−8 M) of the same compound?
**A.** Its value is 49.1 ± 2.9%.

**Q.** And the “Sodium Content” value (10^−9 M in reperfusion solution)?
**A.** Its value is 68.4 ± 6.2 µmol/g.

**Q.** What about the “Recovery in Contractile Tension” value (10^−9 M) of the same compound?
**A.** The value was 40.0 ± 4.9%.

**Q.** And the “increase of ventricular sodium content induced by ischemia and reperfusion (result in words)” value?
**A.** Its value is “suppressed”.
